Data reported in the supplement of paper PMC7840683.
± gives the standard deviation of the averaged measurements.

Tested on: HepaRG
Assay: LDH release cytotoxicity, % of total lysis control; higher = more cytotoxic
Conditions: 48 h
Procedure, shortened: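 HepaRG cells from a single lot were plated on collagen I-coated 96-well plates and treated in duplicate for 48 h with eight-point half-log series of test chemicals, starting at 100 µM, in serum-free induction medium containing 0.5% DMSO. Total lysis wells were given 0.1% Triton X. LDH released into 50 µL of spent medium was measured as resorufin fluorescence with CytoTox-ONE on a Tecan Safire. Percent cytotoxicity was normalized to on-plate vehicle and total lysis controls and then averaged across duplicates.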

## Cc1cc(N=Nc2ccccc2C)ccc1N [o-Aminoazotoluene]
0.03162 µM
  LDH release cytotoxicity: 1.25 ± 0.25%
0.1 µM
  LDH release cytotoxicity: 0.0136 ± 0.85%
0.3162278 µM
  LDH release cytotoxicity: -0.529 ± 0.91%
1 µM
  LDH release cytotoxicity: -1.5 ± 0.26%
3.16228 µM
  LDH release cytotoxicity: 0.597 ± 1.2%
10 µM
  LDH release cytotoxicity: -0.361 ± 0.022%
31.6228 µM
  LDH release cytotoxicity: -0.392 ± 0.21%
100 µM
  LDH release cytotoxicity: 1.11 ± 0.27%

## CCCCCCCCCC[N+](C)(C)[O-] [N,N-Dimethyldecylamine oxide]
0.031623 µM
  LDH release cytotoxicity: -1.68 ± 1.2%
0.1 µM
  LDH release cytotoxicity: -2.43 ± 1.6%
0.316228 µM
  LDH release cytotoxicity: -2.73 ± 1.6%
1 µM
  LDH release cytotoxicity: -2 ± 1.5%
3.16228 µM
  LDH release cytotoxicity: -2.26 ± 0.2%
10 µM
  LDH release cytotoxicity: -2.07 ± 0.077%
31.6228 µM
  LDH release cytotoxicity: -0.853 ± 1%
100 µM
  LDH release cytotoxicity: 1.25 ± 0.8%

## CCOc1cccc(-n2cc(C(=O)N3CCN(c4cc(C(=O)O)c5ccccc5c4)CC3)nc2-c2ccc(C)cc2)c1
0.03162 µM
  LDH release cytotoxicity: 1.24 ± 1.9%
0.1 µM
  LDH release cytotoxicity: -0.332 ± 0.54%
0.3162278 µM
  LDH release cytotoxicity: 0.167 ± 0.63%
1 µM
  LDH release cytotoxicity: -0.486 ± 0.56%
3.16228 µM
  LDH release cytotoxicity: -0.46 ± 0.52%
10 µM
  LDH release cytotoxicity: -0.211 ± 1%
31.6228 µM
  LDH release cytotoxicity: 9.35 ± 0.66%
100 µM
  LDH release cytotoxicity: 44.3 ± 2.7%

## O=C1OC(=O)C2C3C=CC(C3)C12 (configuration not stated) [2-Norbornene-5,6-dicarboxylic anhydride]
0.03162 µM
  LDH release cytotoxicity: -1.12 ± 0.28%
0.1 µM
  LDH release cytotoxicity: -0.887 ± 0.62%
0.3162278 µM
  LDH release cytotoxicity: -1.06 ± 0.25%
1 µM
  LDH release cytotoxicity: -1.3 ± 0.092%
3.16228 µM
  LDH release cytotoxicity: -0.802 ± 0.41%
10 µM
  LDH release cytotoxicity: -1.42 ± 0.42%
31.6228 µM
  LDH release cytotoxicity: -0.266 ± 0.16%
100 µM
  LDH release cytotoxicity: 1.32 ± 0.12%

## COCC(=O)N(c1c(C)cccc1C)C(C)C(=O)OC (configuration not stated) [Metalaxyl]
0.03162 µM
  LDH release cytotoxicity: -1.86 ± 0.61%
0.1 µM
  LDH release cytotoxicity: -0.811 ± 0.78%
0.3162278 µM
  LDH release cytotoxicity: -0.303 ± 0.27%
1 µM
  LDH release cytotoxicity: -0.996 ± 0.099%
3.16228 µM
  LDH release cytotoxicity: -0.0482 ± 0.74%
10 µM
  LDH release cytotoxicity: -0.0413 ± 0.72%
31.6228 µM
  LDH release cytotoxicity: 0.228 ± 0.89%
100 µM
  LDH release cytotoxicity: 2.83 ± 2.6%

## CC1=C(C)S(=O)(=O)CCS1(=O)=O [Dimethipin]
0.03162 µM
  LDH release cytotoxicity: -2.35 ± 1%
0.1 µM
  LDH release cytotoxicity: -2.52 ± 0.16%
0.3162278 µM
  LDH release cytotoxicity: -2.59 ± 0.038%
1 µM
  LDH release cytotoxicity: -3.12 ± 0.25%
3.16228 µM
  LDH release cytotoxicity: -2.6 ± 0.79%
10 µM
  LDH release cytotoxicity: -2.6 ± 0.88%
31.6228 µM
  LDH release cytotoxicity: -2.51 ± 1.3%
100 µM
  LDH release cytotoxicity: -1.52 ± 0.84%

## CCC(C)(C)c1ccc(O)cc1 [4-(2-Methylbutan-2-yl)phenol]
0.03162 µM
  LDH release cytotoxicity: -0.822 ± 0.23%
0.1 µM
  LDH release cytotoxicity: -1.57 ± 0.82%
0.3162278 µM
  LDH release cytotoxicity: -1.05 ± 0.14%
1 µM
  LDH release cytotoxicity: -1.22 ± 0.6%
3.16228 µM
  LDH release cytotoxicity: -1.65 ± 0.4%
10 µM
  LDH release cytotoxicity: -0.249 ± 0.14%
31.6228 µM
  LDH release cytotoxicity: -1.75 ± 1.1%
100 µM
  LDH release cytotoxicity: 0.707 ± 0.61%

## CSc1nnc(C(C)(C)C)c(=O)n1N [Metribuzin]
0.03162 µM
  LDH release cytotoxicity: -0.754 ± 0.83%
0.1 µM
  LDH release cytotoxicity: 0.58 ± 1%
0.3162278 µM
  LDH release cytotoxicity: -0.959 ± 0.2%
1 µM
  LDH release cytotoxicity: -1.09 ± 0.56%
3.16228 µM
  LDH release cytotoxicity: -1.24 ± 0.2%
10 µM
  LDH release cytotoxicity: -0.985 ± 0.14%
31.6228 µM
  LDH release cytotoxicity: -0.751 ± 0.37%
100 µM
  LDH release cytotoxicity: 0.317 ± 0.26%

## Oc1ccc(O)cc1 [Hydroquinone]
0.03162 µM
  LDH release cytotoxicity: 0.852 ± 2.2%
0.1 µM
  LDH release cytotoxicity: -0.606 ± 1%
0.3162278 µM
  LDH release cytotoxicity: -1.09 ± 0.16%
1 µM
  LDH release cytotoxicity: -0.745 ± 0.076%
3.16228 µM
  LDH release cytotoxicity: -0.483 ± 0.15%
10 µM
  LDH release cytotoxicity: -0.0561 ± 0.24%
31.6228 µM
  LDH release cytotoxicity: -0.947 ± 0.53%
100 µM
  LDH release cytotoxicity: -1.615 ± 0.013%

## COc1cc(Cl)c(OC)cc1Cl [Chloroneb]
0.03162 µM
  LDH release cytotoxicity: -1.52 ± 0.84%
0.1 µM
  LDH release cytotoxicity: -0.787 ± 0.028%
0.3162278 µM
  LDH release cytotoxicity: -1.49 ± 0.12%
1 µM
  LDH release cytotoxicity: -2.31 ± 0.56%
3.16228 µM
  LDH release cytotoxicity: -1.57 ± 0.11%
10 µM
  LDH release cytotoxicity: -0.979 ± 0.73%
31.6228 µM
  LDH release cytotoxicity: -0.777 ± 0.15%
100 µM
  LDH release cytotoxicity: 0.671 ± 2.6%

## CCOC(=O)OC(C)OC(=O)c1ccc2c(c1)cc(C(=O)NC1CCN(C(C)C)CC1)n2Cc1cc(-c2ccc(Cl)s2)on1 (configuration not stated) [AVE6324]
0.02988 µM
  LDH release cytotoxicity: -0.39 ± 1.6%
0.0945 µM
  LDH release cytotoxicity: -0.573 ± 0.22%
0.298835 µM
  LDH release cytotoxicity: -0.553 ± 1.2%
0.945 µM
  LDH release cytotoxicity: -1.09 ± 0.69%
2.98835 µM
  LDH release cytotoxicity: -0.186 ± 0.77%
9.45 µM
  LDH release cytotoxicity: 1.15 ± 0.64%
29.8835 µM
  LDH release cytotoxicity: 1.55 ± 1.8%
94.5 µM
  LDH release cytotoxicity: 48.4 ± 7.1%

## O=C(Oc1ccc(Br)cc1)N1CCN2CCC1CC2
0.03162 µM
  LDH release cytotoxicity: -1.87 ± 0.45%
0.1 µM
  LDH release cytotoxicity: -3.23 ± 2.2%
0.3162278 µM
  LDH release cytotoxicity: -0.984 ± 0.16%
1 µM
  LDH release cytotoxicity: -1.45 ± 0.27%
3.16228 µM
  LDH release cytotoxicity: -1.43 ± 0.56%
10 µM
  LDH release cytotoxicity: -1.29 ± 0.41%
31.6228 µM
  LDH release cytotoxicity: -0.718 ± 0.41%
100 µM
  LDH release cytotoxicity: 0.972 ± 0.95%

## CC(C)C(=O)OCC(C)(C)C(OC(=O)C(C)C)C(C)C (configuration not stated) [2,2,4-Trimethyl-1,3-pentanediol diisobutyrate]
0.03162 µM
  LDH release cytotoxicity: -1.97 ± 1.2%
0.1 µM
  LDH release cytotoxicity: -3.46 ± 0.69%
0.3162278 µM
  LDH release cytotoxicity: -3.48 ± 0.61%
1 µM
  LDH release cytotoxicity: -2.95 ± 0.15%
3.16228 µM
  LDH release cytotoxicity: -3.05 ± 0.42%
10 µM
  LDH release cytotoxicity: -2.18 ± 0.16%
31.6228 µM
  LDH release cytotoxicity: -2.05 ± 0.51%
100 µM
  LDH release cytotoxicity: 0.686 ± 0.88%

## CC(C)(O)c1ccc(CNC(=O)c2cccnc2Oc2ccc(F)cc2)cc1
0.03162 µM
  LDH release cytotoxicity: -1.22 ± 0.93%
0.1 µM
  LDH release cytotoxicity: -1.42 ± 0.31%
0.3162278 µM
  LDH release cytotoxicity: -0.81 ± 0.042%
1 µM
  LDH release cytotoxicity: -1.975 ± 0.0046%
3.16228 µM
  LDH release cytotoxicity: -0.936 ± 0.39%
10 µM
  LDH release cytotoxicity: -0.88 ± 0.74%
31.6228 µM
  LDH release cytotoxicity: -1.34 ± 0.14%
100 µM
  LDH release cytotoxicity: -1.94 ± 0.87%

## Cc1ccc2oc(CN(Cc3ccccc3)C(=O)Nc3c(F)cc(F)cc3F)c(-c3ccc(Cl)cc3)c2c1
0.0279862 µM
  LDH release cytotoxicity: -1.59 ± 1.2%
0.0885 µM
  LDH release cytotoxicity: -1.08 ± 0.43%
0.279862 µM
  LDH release cytotoxicity: -1.56 ± 0.098%
0.885 µM
  LDH release cytotoxicity: -1.22 ± 0.62%
2.7986157 µM
  LDH release cytotoxicity: -1.44 ± 0.12%
8.85 µM
  LDH release cytotoxicity: -1.09 ± 0.59%
27.9862 µM
  LDH release cytotoxicity: -0.962 ± 0.17%
88.5 µM
  LDH release cytotoxicity: 2.85 ± 1.8%

## CCCCCCCCCCCCCCCO [1-Pentadecanol]
0.03162 µM
  LDH release cytotoxicity: 0.0106 ± 0.14%
0.1 µM
  LDH release cytotoxicity: -0.465 ± 0.06%
0.3162278 µM
  LDH release cytotoxicity: 0.131 ± 0.74%
1 µM
  LDH release cytotoxicity: -0.574 ± 0.11%
3.16228 µM
  LDH release cytotoxicity: 0.207 ± 0.55%
10 µM
  LDH release cytotoxicity: 0.233 ± 0.26%
31.6228 µM
  LDH release cytotoxicity: 0.338 ± 0.26%
100 µM
  LDH release cytotoxicity: 2.58 ± 0.24%

## CN=C=S [Methyl isothiocyanate]
0.031623 µM
  LDH release cytotoxicity: -2.69 ± 0.49%
0.1 µM
  LDH release cytotoxicity: -1.72 ± 1%
0.316228 µM
  LDH release cytotoxicity: -3.56 ± 1.4%
1 µM
  LDH release cytotoxicity: -4.608 ± 0.021%
3.16228 µM
  LDH release cytotoxicity: -3.71 ± 0.42%
10 µM
  LDH release cytotoxicity: -2.9 ± 0.8%
31.6228 µM
  LDH release cytotoxicity: 0.153 ± 0.77%
100 µM
  LDH release cytotoxicity: 49.2 ± 6.8%

## COc1ccc2cc(S(=O)(=O)NC(CC(=O)NC(Cc3ccc(CN4C(C)CCCC4C)cc3)C(=O)N(C)C(C)C)c3ccc4c(c3)OCO4)ccc2c1 (configuration not stated)
0.0301998 µM
  LDH release cytotoxicity: -0.793 ± 0.59%
0.0955 µM
  LDH release cytotoxicity: -1.98 ± 1.2%
0.301997 µM
  LDH release cytotoxicity: -1.26 ± 0.36%
0.955 µM
  LDH release cytotoxicity: -1.65 ± 0.66%
3.01998 µM
  LDH release cytotoxicity: -1.13 ± 0.075%
9.55 µM
  LDH release cytotoxicity: 1.45 ± 0.6%
30.199752 µM
  LDH release cytotoxicity: 70.28 ± 0.7%
95.5 µM
  LDH release cytotoxicity: 80.2 ± 1%

## CCOC(N)=O [Urethane]
0.03162 µM
  LDH release cytotoxicity: -1.53 ± 1%
0.1 µM
  LDH release cytotoxicity: -1.5 ± 0.84%
0.3162278 µM
  LDH release cytotoxicity: -1.42 ± 0.68%
1 µM
  LDH release cytotoxicity: -1.29 ± 0.5%
3.16228 µM
  LDH release cytotoxicity: -1.03 ± 0.12%
10 µM
  LDH release cytotoxicity: -1.2 ± 0.054%
31.6228 µM
  LDH release cytotoxicity: -0.4372 ± 0.0016%
100 µM
  LDH release cytotoxicity: 0.365 ± 1.2%
